How the values were obtained:
A549 = experiment: MTS cytotoxicity, A549; type: cell-based; settings: Homo sapiens
Experimental: (§1) Human cancer cell lines were cultured in basic medium (10% fetal bovine serum (FBS)+1% double antibody solution) (Biological Industries) at 37°C in a 5% CO2 incubator. Effects of CTXs on cell proliferation and viability were measured by an MTS (Promega Corporation) assay. Absorbance values at 490 nm were measured using a microplate reader (Thermo Scientific, Varioskan Flash) ([22]).

H358 = experiment: MTS cytotoxicity, H358; type: cell-based; settings: Homo sapiens, NCI-H358
Experimental: as §1

L-02 = experiment: MTS cytotoxicity, L-02 (non-tumor); type: cell-based; settings: Homo sapiens, L02, L-02 non-tumor cell line
Experimental: as §1

Excretion (urine, feces) = type: in vivo; settings: SD rats, 6 μmol/kg iv, in 24 h
Experimental: Male and female SD rats (200–220 g) received intravenous injections of CTX or CTX-DTPA (6 μmol/kg). […] Blood samples were collected at 5 min to 24 h post-dose. Tissues (heart, liver, spleen, lung, kidney, thymus) and excreta were collected at 15 min, 2 h, 4 h, and 12 h. Plasma and tissue samples were processed by liquid-liquid extraction with n-butanol and analyzed via LC-MS/MS (Agilent Poroshell 120 EC-C18 column; 0.05% formic acid/acetonitrile gradient). Pharmacokinetic parameters were calculated using DAS 2.0 via non-compartmental analysis.

HT-29 = experiment: MTS cytotoxicity, HT-29; type: cell-based; settings: Homo sapiens; HT-29, MTS
Experimental: as §1

[1] = Lipid-aqueous (octanol/water) partition coefficient; type: physicochemical; settings: room temperature
Experimental: CTXs were dissolved in octanol, and an equal volume of water was added, followed by shaken at 100 rpm for 24 h at room temperature. The upper octanol phase and lower water phase were separated by centrifugation. The supernatant was analyzed by HPLC (Bruker SolanX 70 FT-MS; Agilent 6540TOF) ([21]).

HCT 116 = experiment: MTS cytotoxicity, HCT 116; type: cell-based; settings: Homo sapiens; HCT 116, MTS
Experimental: as §1

[2] = Systemic toxicity in H22 tumor-bearing mice (body weight, blood count); type: in vivo, KM mice
Experimental: (§2) H22 hepatoma model: Female KM mice were subcutaneously implanted with H22 cells (2×10^6 cells/mouse) and assigned to six groups: (a) Vehicle control; (b) CTX (9.6 μmol/kg in 5% glucose with 2.5% ethanol/2.5% Tween 80); (c) CTX-TTHA (9.6 μmol/kg in saline); (d) CTX-DTPA (9.6 μmol/kg in saline); (e) CTX-TTHA (19.1 μmol/kg in saline); (f) CTX-DTPA (19.1 μmol/kg in saline).
(§3) Treatments were administered every other day for four doses (three doses for CTX group due to weight loss >15%). Peripheral blood samples were collected for complete blood count analysis using an automated hematology analyzer.

SK-OV-3 = experiment: MTS cytotoxicity, SK-OV-3; type: cell-based; settings: Homo sapiens; SK-OV-3, MTS
Experimental: as §1

Fadu = experiment: MTS cytotoxicity, Fadu; type: cell-based; settings: Homo sapiens
Experimental: as §1

MCF-7 = experiment: MTS cytotoxicity, MCF-7; type: cell-based; settings: Homo sapiens, MCF7; MCF-7, MTS
Experimental: as §1

Bel-7402 = experiment: MTS cytotoxicity, Bel-7402; type: cell-based; settings: Homo sapiens; Bel-7402, MTS
Experimental: as §1

[3] = Plasma pharmacokinetics (non-compartmental); settings: plasma
Experimental: (§4) Male and female SD rats (200–220 g) received intravenous injections of CTX or CTX-DTPA (6 μmol/kg). CTX was dissolved in 2.5% Tween 80/2.5% EtOH/saline, while CTX-DTPA used saline alone. Blood samples were collected at 5 min to 24 h post-dose. Tissues (heart, liver, spleen, lung, kidney, thymus) and excreta were collected at 15 min, 2 h, 4 h, and 12 h. Plasma and tissue samples were processed by liquid-liquid extraction with n-butanol and analyzed via LC-MS/MS (Agilent Poroshell 120 EC-C18 column; 0.05% formic acid/acetonitrile gradient). Pharmacokinetic parameters were calculated using DAS 2.0 via non-compartmental analysis.

MCF-7 xenografts = experiment: MCF-7 breast cancer xenograft, tumor volume; type: in vivo, BALB/c nude mice; settings: MCF-7 xenograft, 9.6 μmol/kg
Experimental: All animal experiments were conducted in accordance with protocols approved by the Institutional Animal Care and Use Committee of Peking Union Medical College. Male BALB/c nude mice (6–8 weeks old) and female KM mice (6–8 weeks old) were purchased from Charles River Laboratories (Beijing, China) and maintained under specific pathogen-free conditions.
MCF-7 Breast Cancer Model: Female BALB/c nude mice bearing MCF-7 xenografts (2×10^6 cells/mouse) were randomized into treatment groups as described above, with an adjusted dose of 9.6 μmol/kg for all CTX formulations.

[4] = test system: H22 hepatocellular carcinoma tumors; experiment: H22 hepatoma model, tumor growth inhibition; type: in vivo, KM mice; settings: H22, 9.6 μmol/kg, every other day, three doses
Experimental: as §2, §3

H520 = experiment: MTS cytotoxicity, H520; type: cell-based; settings: Homo sapiens, NCI-H520
Experimental: as §1

H460 = experiment: MTS cytotoxicity, H460; type: cell-based; settings: Homo sapiens, NCI-H460
Experimental: as §1

LN229 = experiment: MTS cytotoxicity, LN229; type: cell-based; settings: Homo sapiens, LN-229
Experimental: as §1

Tissue distribution = settings: both, SD, rat, iv, 6 μmol/kg
Experimental: as §4

DU145 cells = experiment: Cell cycle arrest (PI, flow cytometry); type: cell-based, human; settings: 24 h
Experimental: Cells were incubated with drugs for 24 h. Fixed cells were incubated with RNase A and stained with propidium iodide (PI). DNA content was determined in a flow cytometer (BD FACS CaliburTM Flow Cytometer, USA) ([23]).

PC-3 = experiment: MTS cytotoxicity, PC-3; type: cell-based; settings: Homo sapiens; PC-3, MTS
Experimental: as §1

[5] = SD rats, 6 μmol/kg iv, dosed compound itself

**Q.** Which IC50 (A549) does the source give for CO[C@H]1C(=O)[C@]2(C)[C@@H](OC)C[C@H]3OC[C@@]3(OC(C)=O)[C@H]2[C@H](OC(=O)c2ccccc2)[C@]2(O)C[C@H](OC(=O)[C@H](O)[C@@H](NC(=O)OC(C)(C)C)c3ccccc3)C(C)=C1C2(C)C [CTX, Cabazitaxel] here?
**A.** The IC50 was 2.5 ± 1.2 nM.

**Q.** And the IC50 (H358)?
**A.** The IC50 was 1.2 ± 0.6 nM.

**Q.** What about the IC50 (L-02) of the same compound?
**A.** Its IC50 is 7.8 ± 1.5 nM.

**Q.** What about the “total excretion of administered dose” value (Excretion (urine, feces)) of the same compound?
**A.** The value was < 1 % of dose.

**Q.** What about the IC50 (HT-29) of the same compound?
**A.** The IC50 was 7.4 ± 3.4 nM.

**Q.** And the logP at 24 h [1]?
**A.** Its logP at 24 h is 4.55 ± 0.1.

**Q.** And the IC50 (HCT 116)?
**A.** The IC50 was 2.2 ± 1.1 nM.

**Q.** What about the “white blood cell count” value ([2]; H22 mice, day 7 post-treatment, controls 4.46 ± 1.19) of the same compound?
**A.** The value was 1.55 ± 0.17 ×10^9/L.

**Q.** What about the body weight loss ([2]; H22 tumor-bearing mice, 9.6 μmol/kg) of the same compound?
**A.** The body weight loss was 11-16%.

**Q.** What about the IC50 (SK-OV-3) of the same compound?
**A.** The IC50 was 4.4 ± 0.9 nM.

**Q.** What about the IC50 (Fadu) of the same compound?
**A.** The IC50 was 1.6 ± 0.4 nM.

**Q.** What about the IC50 (MCF-7) of the same compound?
**A.** The IC50 was 5.3 ± 1.9 nM.

**Q.** What about the IC50 (Bel-7402) of the same compound?
**A.** Its IC50 is 2.8 ± 0.5 nM.

**Q.** What about the MRT0-t [3, 5] of the same compound?
**A.** Its MRT0-t is 0.67 ± 0.09 H.

**Q.** What about the t1/2 [3, 5] of the same compound?
**A.** Its t1/2 is 1.27 ± 0.09 H.

**Q.** And the AUC(0-t) ([3]; both, SD, rat, iv, 6 umol/kg)?
**A.** The AUC(0-t) was 1680 ± 194 ng·h/mL.

**Q.** And the Cmax ([3]; both, SD, rat, iv, 6 umol/kg)?
**A.** Its Cmax is 2930 ± 990 ng/mL.

**Q.** And the Vd ([3]; both, SD, rat, iv, 6 umol/kg)?
**A.** Its Vd is 5.53 ± 0.81 L/kg.

**Q.** And the clearance ([3]; both, SD, rat, iv, 6 umol/kg)?
**A.** Its clearance is 50.2 mL/min/kg.

**Q.** What about the “tumor volume at study endpoint” value (MCF-7 xenografts) of the same compound?
**A.** The value was 56 ± 12 mm³.

**Q.** And the tumor growth inhibition [4]?
**A.** Its tumor growth inhibition is 30.8%.

**Q.** What about the IC50 (H520) of the same compound?
**A.** Its IC50 is 1.5 ± 0.7 nM.

**Q.** And the IC50 (H460)?
**A.** Its IC50 is 2.4 ± 1.3 nM.

**Q.** What about the IC50 (LN229) of the same compound?
**A.** Its IC50 is 8.5 ± 2.3 nM.

**Q.** And the concentration at 15 min (Tissue distribution; heart)?
**A.** The concentration at 15 min was 43.2 ± 12.9 ng/g.

**Q.** What about the concentration at 2 h (Tissue distribution; heart) of the same compound?
**A.** The concentration at 2 h was 24.6 ± 2.33 ng/g.

**Q.** What about the concentration at 4 h (Tissue distribution; heart) of the same compound?
**A.** The concentration at 4 h was 16 ± 1.91 ng/g.

**Q.** And the concentration at 12 h (Tissue distribution; heart)?
**A.** The concentration at 12 h was 12.6 ± 2.69 ng/g.

**Q.** What about the concentration at 15 min (Tissue distribution; kidney) of the same compound?
**A.** The concentration at 15 min was 550 ± 12 ng/g.

**Q.** What about the concentration at 2 h (Tissue distribution; kidney) of the same compound?
**A.** Its concentration at 2 h is 313 ± 47.5 ng/g.

**Q.** And the concentration at 4 h (Tissue distribution; kidney)?
**A.** The concentration at 4 h was 308 ± 41.5 ng/g.

**Q.** And the concentration at 12 h (Tissue distribution; kidney)?
**A.** Its concentration at 12 h is 218 ± 15.9 ng/g.

**Q.** What about the concentration at 15 min (Tissue distribution; liver) of the same compound?
**A.** Its concentration at 15 min is 149 ± 7.27 ng/g.

**Q.** What about the concentration at 2 h (Tissue distribution; liver) of the same compound?
**A.** Its concentration at 2 h is 78.7 ± 10.6 ng/g.

**Q.** What about the concentration at 4 h (Tissue distribution; liver) of the same compound?
**A.** The concentration at 4 h was 48.7 ± 11.5 ng/g.

**Q.** And the concentration at 12 h (Tissue distribution; liver)?
**A.** The concentration at 12 h was 29.3 ± 11.5 ng/g.

**Q.** And the concentration at 15 min (Tissue distribution; lung)?
**A.** The concentration at 15 min was 133 ± 15 ng/g.

**Q.** What about the concentration at 2 h (Tissue distribution; lung) of the same compound?
**A.** The concentration at 2 h was 117 ± 4.61 ng/g.

**Q.** And the concentration at 4 h (Tissue distribution; lung)?
**A.** Its concentration at 4 h is 106.8 ± 0.42 ng/g.

**Q.** And the concentration at 12 h (Tissue distribution; lung)?
**A.** Its concentration at 12 h is 79 ± 30.9 ng/g.

**Q.** And the concentration at 15 min (Tissue distribution; spleen)?
**A.** The concentration at 15 min was 250 ± 38.3 ng/g.

**Q.** And the concentration at 2 h (Tissue distribution; spleen)?
**A.** The concentration at 2 h was 160 ± 2.24 ng/g.

**Q.** What about the concentration at 4 h (Tissue distribution; spleen) of the same compound?
**A.** Its concentration at 4 h is 113 ± 21 ng/g.

**Q.** What about the concentration at 12 h (Tissue distribution; spleen) of the same compound?
**A.** Its concentration at 12 h is 54 ± 8.47 ng/g.

**Q.** What about the concentration at 15 min (Tissue distribution; thymus) of the same compound?
**A.** Its concentration at 15 min is 87.8 ± 23.5 ng/g.

**Q.** What about the concentration at 2 h (Tissue distribution; thymus) of the same compound?
**A.** Its concentration at 2 h is 129 ± 50 ng/g.

**Q.** What about the concentration at 4 h (Tissue distribution; thymus) of the same compound?
**A.** Its concentration at 4 h is 110 ± 41.8 ng/g.

**Q.** What about the concentration at 12 h (Tissue distribution; thymus) of the same compound?
**A.** The concentration at 12 h was 67.2 ± 4.15 ng/g.

**Q.** And the “cells arrested in G2/M” value (DU145 cells; DU145, 1 nM)?
**A.** The value was 16.5 ± 0.7%.

**Q.** What about the “cells arrested in G2/M” value (DU145 cells; DU145, 25 nM) of the same compound?
**A.** Its value is 65.5 ± 19.9%.

**Q.** And the IC50 (PC-3)?
**A.** The IC50 was 5.2 ± 1.7 nM.

— PMC12689286, “Enhanced therapeutics of cabazitaxel via polycarboxylate conjugation: improved solubility, safety, and antitumor efficacy” (Frontiers in Immunology, 2025)
